Assay results taken from the supplement of paper PMC4862054.

Experiments:
Conditions in all cases: incubation time: 72 h
MFM-223 [1] = experiment: normalised response (% of control), CellTox Green; higher = less cell death (100 = DMSO, 0 = benzethonium chloride kill control)
Summary of the method: (§1)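 Compound was dispensed into 384-well plates at 5 concentrations in 10-fold steps spanning a 10,000-fold range specific to that compound. Breast cancer cell lines were added as 20 µl suspension and left for 72 h before CellTox Green fluorescence (485/520 nm) and then CellTiter-Glo luminescence, read after 10 min at room temperature. Each reported value is the normalised signal at one concentration, with 0.1 % DMSO set at 100 and a positive kill control at 0 on each plate.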

CAL-148 [2] = experiment: as above
Summary of the method: as §1

MDA-MB-436 [3] = experiment: as above
Summary of the method: as §1

MDA-MB-453 [4] = experiment: as above
Summary of the method: as §1

BT-474 [5] = experiment: as above
Summary of the method: as §1

MDA-MB-231 [6] = experiment: as above
Summary of the method: as §1

DU-4475 [7] = experiment: as above
Summary of the method: as §1

HCC1599 [8] = experiment: as above
Summary of the method: as §1

MCF-10A [9] = experiment: as above
Summary of the method: as §1

CAL-85-1 [10] = experiment: as above
Summary of the method: as §1

CAL-51 [11] = experiment: as above
Summary of the method: as §1

HDQ-P1 [12] = experiment: as above
Summary of the method: as §1

HCC1143 [13] = experiment: as above
Summary of the method: as §1

Hs578T [14] = experiment: as above
Summary of the method: as §1

HCC1937 [15] = experiment: as above
Summary of the method: as §1

BT-549 [16] = experiment: as above
Summary of the method: as §1

CAL-120 [17] = experiment: as above
Summary of the method: as §1

MDA-MB-468 [18] = experiment: as above
Summary of the method: as §1

MFM-223 [19] = experiment: normalised response (% of control), CellTiter-Glo; higher = more viable cells (100 = DMSO, 0 = benzethonium chloride kill control)
Summary of the method: as §1

CAL-148 [20] = experiment: as above
Summary of the method: as §1

MDA-MB-436 [21] = experiment: as above
Summary of the method: as §1

MDA-MB-453 [22] = experiment: as above
Summary of the method: as §1

BT-474 [23] = experiment: as above
Summary of the method: as §1

MDA-MB-231 [24] = experiment: as above
Summary of the method: as §1

DU-4475 [25] = experiment: as above
Summary of the method: as §1

HCC1599 [26] = experiment: as above
Summary of the method: as §1

MCF-10A [27] = experiment: as above
Summary of the method: as §1

CAL-85-1 [28] = experiment: as above
Summary of the method: as §1

CAL-51 [29] = experiment: as above
Summary of the method: as §1

HDQ-P1 [30] = experiment: as above
Summary of the method: as §1

HCC1143 [31] = experiment: as above
Summary of the method: as §1

Hs578T [32] = experiment: as above
Summary of the method: as §1

HCC1937 [33] = experiment: as above
Summary of the method: as §1

BT-549 [34] = experiment: as above
Summary of the method: as §1

SK-BR-3 = experiment: as above
Summary of the method: as §1

CAL-120 [35] = experiment: as above
Summary of the method: as §1

MDA-MB-468 [36] = experiment: as above
Summary of the method: as §1

SMILES | normalised response (MFM-223 [1]) | normalised response (CAL-148 [2]) | normalised response (MDA-MB-436 [3]) | normalised response (MDA-MB-453 [4]) | normalised response (BT-474 [5]) | normalised response (MDA-MB-231 [6]) | normalised response (DU-4475 [7]) | normalised response (HCC1599 [8]) | normalised response (MCF-10A [9]) | normalised response (CAL-85-1 [10]) | normalised response (CAL-51 [11]) | normalised response (HDQ-P1 [12]) | normalised response (HCC1143 [13]) | normalised response (Hs578T [14]) | normalised response (HCC1937 [15]) | normalised response (BT-549 [16]) | normalised response (CAL-120 [17]) | normalised response (MDA-MB-468 [18]) | normalised response (MFM-223 [19]) | normalised response (CAL-148 [20]) | normalised response (MDA-MB-436 [21]) | normalised response (MDA-MB-453 [22]) | normalised response (BT-474 [23]) | normalised response (MDA-MB-231 [24]) | normalised response (DU-4475 [25]) | normalised response (HCC1599 [26]) | normalised response (MCF-10A [27]) | normalised response (CAL-85-1 [28]) | normalised response (CAL-51 [29]) | normalised response (HDQ-P1 [30]) | normalised response (HCC1143 [31]) | normalised response (Hs578T [32]) | normalised response (HCC1937 [33]) | normalised response (BT-549 [34]) | normalised response (SK-BR-3) | normalised response (CAL-120 [35]) | normalised response (MDA-MB-468 [36])
Cc1ccc([N+](=O)[O-])cc1S(=O)(=O)N(C)/N=C/c1cnc2ccc(Br)cn12 [PIK-75] (1000 nM) | 44.6% | 86.7% | 102% | 61.6% | 6.93% | -17.8% | 79% | 62.1% | -12.4% | -12.6% | 70.6% | 38.4% | 56.9% | 42.7% | 99.3% | 35.8% | 86.8% | -15.6% | 7.31% | 48.8% | 15.9% | 4.17% | 9.85% | 1.8% | 4.76% | 6.38% | 1.81% | 1.64% | 11.5% | 16.7% | 13.3% | 3.83% | 21.6% | 2.37% | 0.25% | 28.5% | 2.19%
CC1(C)CCC(CN2CCN(c3ccc(C(=O)NS(=O)(=O)c4ccc(NCC5CCOCC5)c([N+](=O)[O-])c4)c(Oc4cnc5[nH]ccc5c4)c3)CC2)=C(c2ccc(Cl)cc2)C1 [ABT-199] (1000 nM) | 99.2% | 71.6% | 85% | 99.2% | 99.9% | 102% | 98% | 92.1% | 112% | 102% | 87.8% | 104% | 74.1% | 105% | – | 76.5% | 89.8% | 66.1% | 94.5% | 105% | 94.8% | 102% | 95.4% | 99.3% | 90.6% | 105% | 96.9% | 96.9% | 69.8% | 97.4% | 101% | 98.7% | 103% | 101% | 107% | 99.5% | 93.6%
CC1=C2C[C@H]3[C@@H](CC=C4C[C@@H](O)CC[C@@]43C)[C@@H]2CC[C@]12O[C@@H]1C[C@H](C)CN[C@H]1[C@H]2C [Cyclopamine] (10 nM) | – | – | – | – | – | – | – | – | – | – | – | – | – | – | – | – | – | – | 113% | 117% | 105% | 109% | 104% | 105% | 109% | 116% | 114% | 98% | 110% | 105% | 105% | 105% | 104% | 95.6% | 120% | 102% | 110%
C[C@]12CC[C@@H]3c4ccc(OC(=O)N(CCCl)CCCl)cc4CC[C@H]3[C@@H]1CC[C@@H]2O [Estramustine] (1000 nM) | 93.1% | 46.8% | 93.3% | 97.3% | 89% | 94% | 96.5% | 90.2% | 55.8% | 107% | 84.7% | 70.6% | 103% | – | 67% | 98.6% | 93.9% | 182% | 86.2% | 78.6% | 98.5% | 93.5% | 96.1% | 94.4% | 88.5% | 111% | 92% | 93.3% | 80.7% | 103% | 93.5% | 95.9% | 95.5% | 104% | 87.4% | 99.9% | 87.1%
